In patent US11702422B2, “Imidazopyridazines as modulators of IL-17” (Janssen Pharmaceutica NV, priority 2020, dated 2023) one finds IC50 data, which are given here for 20 compounds.

Assay [1] has as its target IL-17A(FLAG-Tagged): IL-17RA(His-Tagged) (Homo sapiens, UniProt Q16552, K93Q). The experiment in a line: IL-17A(FLAG-Tagged): IL-17RA(His-Tagged) Binding Disruption Eu-HTRF Assay. As to conditions: IL-17A/IL-17RA binding disruption, simple average if tested more than once. The essentials: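 IC50 comes from a one-site competition fit of the HTRF 665/620 nm ratio. Compound dilutions (2-fold, 22 points) were held 1 h rt with FLAG-tagged IL-17A dimer, then His-tagged IL-17RA plus Eu-cryptate anti-FLAG and D2 anti-His antibodies were added for 2 h rt.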
A general note: TR-FRET usually uses a lanthanide donor and a delayed reading to cut background.

Assay [2] deals with IL-17A-induced G-CSF production in human normal keratinocyte (NHK). The experiment in a line: NHK Assay: IL-17A-induced G-CSF production in human normal keratinocytes. Particulars: Homo sapiens, Keratinocyte, 24 h, adult normal human keratinocytes, IL-17A 5 ng/mL, simple average if tested more than once. Type of assay: cell-based. The method, boiled down: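 G-CSF released by primary adult human keratinocytes after 24 h at 37° C was quantified by HTRF via standard curve to give IC50. Stimulus was 5 ng/mL IL-17A pre-mixed 1 h at rt with compound dilutions, in 5% FBS and 0.2% DMSO. Cell viability was assessed in parallel with CellTiter-Glo.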

Bounds are passed on as bounds.

The term IC50 denotes the concentration that inhibits the measured activity by half. Low readings indicate inhibition by little substance, high ones a need for much substance.

UniProt Q16552, sequence (Q16552 with tags, fused parts or gaps K93Q): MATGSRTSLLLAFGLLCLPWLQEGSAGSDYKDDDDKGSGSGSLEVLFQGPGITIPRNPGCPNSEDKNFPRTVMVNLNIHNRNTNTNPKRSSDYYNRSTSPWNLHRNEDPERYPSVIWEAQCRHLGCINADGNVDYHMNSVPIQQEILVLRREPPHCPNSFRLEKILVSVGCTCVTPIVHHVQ

Regarding `CCn1nccc1C(=O)N[C@H](c1cn2ncc([C@H](NC(=O)CC3CC(F)(F)C3)C3CC3)cc2n1)C1CCC(F)(F)CC1` [Example 126, N—((S)-(7-((R)-Cyclopropyl(2-(3,3-difluorocyclobutyl)acetamido)methyl)imidazo[1,2-b]pyridazin-2-yl)(4,4-difluorocyclohexyl)methyl)-1-ethyl-1H-pyrazole-5-carboxamide], the IC50 was determined as 46 nM in assay [1] and 84 nM in assay [2].

Consider `CCn1nccc1C(=O)N[C@H](c1cn2ncc([C@H](NC(=O)CCC(F)(F)F)C3CC3)cc2n1)C1CCC(F)(F)CC1` [Example 127, N—((S)-(7-((R)-Cyclopropyl(4,4,4-trifluorobutanamido)methyl)imidazo[1,2-b]pyridazin-2-yl)(4,4-difluorocyclohexyl)methyl)-1-ethyl-1H-pyrazole-5-carboxamide], for which the half-inhibitory concentration (IC50) in assay [1] is 40 nM; in assay [2], 100 nM.

As for `Cc1nonc1C(=O)N[C@H](c1cn2ncc([C@H](NC(=O)CC3CC(F)(F)C3)C3CC3)cc2n1)C1CCC(F)(F)CC1` [Example 142, N—((S)-(7-((R)-Cyclopropyl(2-(3,3-difluorocyclobutyl)acetamido)methyl)imidazo[1,2-b]pyridazin-2-yl)(4,4-difluorocyclohexyl)methyl)-4-methyl-1,2,5-oxadiazole-3-carboxamide], the IC50 in assay [1] is 34 nM; in assay [2], 140 nM.

On to `N#CC12CC(Cn3nncc3C(=O)N[C@H](c3cn4ncc([C@H](NC(=O)CCC(F)(F)F)C5CC5)cc4n3)C3CCC(F)(F)CC3)(C1)C2` [Example 145, 1-((3-Cyanobicyclo[1.1.1]pentan-1-yl)methyl)-N—((S)-(7-((R)-cyclopropyl(4,4,4-trifluorobutanamido)methyl)imidazo[1,2-b]pyridazin-2-yl)(4,4-difluorocyclohexyl)methyl)-1H-1,2,3-triazole-5-carboxamide], for which the IC50 was determined as 650 nM in assay [1] and 300 nM in assay [2].

`N#CC12CC(Cn3ncc(C(=O)N[C@H](c4cn5ncc([C@H](NC(=O)CCC(F)(F)F)C6CC6)cc5n4)C4CCC(F)(F)CC4)n3)(C1)C2` [Example 146, 2-((3-Cyanobicyclo[1.1.1]pentan-1-yl)methyl)-N—((S)-(7-((R)-cyclopropyl(4,4,4-trifluorobutanamido)methyl)imidazo[1,2-b]pyridazin-2-yl)(4,4-difluorocyclohexyl)methyl)-2H-1,2,3-triazole-4-carboxamide]: the IC50 was found to be 680 nM in assay [1] and 710 nM in assay [2].

In the case of `N#CC12CC(Cn3cc(C(=O)N[C@H](c4cn5ncc([C@H](NC(=O)CCC(F)(F)F)C6CC6)cc5n4)C4CCC(F)(F)CC4)nn3)(C1)C2` [Example 147, 1-((3-Cyanobicyclo[1.1.1]pentan-1-yl)methyl)-N—((S)-(7-((R)-cyclopropyl(4,4,4-trifluorobutanamido)methyl)imidazo[1,2-b]pyridazin-2-yl)(4,4-difluorocyclohexyl)methyl)-1H-1,2,3-triazole-4-carboxamide], the IC50 was 1700 nM in assay [1] and above 20000 nM in assay [2].

As for `CC1(C(=O)N[C@H](c2cn3ncc([C@H](NC(=O)CCC(F)(F)F)C4CC4)cc3n2)C2CCC(F)(F)CC2)CC1(F)F` (stereo partly drawn) [Example 148, N—((S)-(7-((R)-Cyclopropyl(4,4,4-trifluorobutanamido)methyl)imidazo[1,2-b]pyridazin-2-yl)(4,4-difluorocyclohexyl)methyl)-2,2-difluoro-1-methylcyclopropane-1-carboxamide], the IC50 in assay [1] stood at 940 nM; in assay [2] it was 1700 nM.

Consider `O=C(CCC(F)(F)F)N[C@@H](c1cnn2cc([C@@H](NC(=O)c3cncc(CCC(F)F)c3)C3CCC(F)(F)CC3)nc2c1)C1CC1` [Example 151, N—((S)-(7-((R)-Cyclopropyl(4,4,4-trifluorobutanamido)methyl)imidazo[1,2-b]pyridazin-2-yl)(4,4-difluorocyclohexyl)methyl)-5-(3,3-difluoropropyl)nicotinamide], for which the half-maximal inhibitory concentration (IC50) in assay [1] worked out at 67 nM; in assay [2], 200 nM.

On to `O=C(CCC(F)(F)F)N[C@@H](c1cnn2cc([C@@H](NC(=O)c3cncc(CC(F)F)c3)C3CCC(F)(F)CC3)nc2c1)C1CC1` [Example 152, N—((S)-(7-((R)-Cyclopropyl(4,4,4-trifluorobutanamido)methyl)imidazo[1,2-b]pyridazin-2-yl)(4,4-difluorocyclohexyl)methyl)-5-(2,2-difluoroethyl)nicotinamide], for which the IC50 in assay [1] was found to be 32 nM; in assay [2], 180 nM.

For the compound `Cc1nocc1C(=O)N[C@H](c1cn2ncc(C(C)NC(=O)CCC(F)(F)F)cc2n1)C1CCC(F)(F)CC1` (stereo partly drawn) [Example 153, N-((1S)-(4,4-Difluorocyclohexyl)(7-(1-(4,4,4-trifluorobutanamido)ethyl)imidazo[1,2-b]pyridazin-2-yl)methyl)-3-methylisoxazole-4-carboxamide], the 50% inhibitory concentration (IC50) in assay [1] stood at 420 nM; in assay [2], 480 nM.

Take `CCc1nonc1C(=O)N[C@H](c1cn2ncc([C@H](NC(=O)CCC(F)(F)F)C3CC3)cc2n1)C1CCC(F)(F)CC1` [Example 156, N—((S)-(7-((R)-Cyclopropyl(4,4,4-trifluorobutanamido)methyl)imidazo[1,2-b]pyridazin-2-yl)(4,4-difluorocyclohexyl)methyl)-4-ethyl-1,2,5-oxadiazole-3-carboxamide]: the values for the half-maximal inhibitory concentration (IC50) in assay [1] and in assay [2] were 13 nM and 60 nM, respectively.

With `Cc1nonc1C(=O)N[C@H](c1cn2ncc([C@H](NC(=O)CCC(F)(F)F)C3CC3)cc2n1)C1CCC(F)(F)CC1` [Example 157, N—((S)-(7-((R)-Cyclopropyl(4,4,4-trifluorobutanamido)methyl)imidazo[1,2-b]pyridazin-2-yl)(4,4-difluorocyclohexyl)methyl)-4-methyl-1,2,5-oxadiazole-3-carboxamide], the results for the IC50 in assay [1] and in assay [2] were 36 nM and 150 nM, respectively.

For the compound `Cc1conc1C(=O)N[C@H](c1cn2ncc([C@H](NC(=O)CCC(F)(F)F)C3CC3)cc2n1)C1CCC(F)(F)CC1` [Example 158, N—((S)-(7-((R)-Cyclopropyl(4,4,4-trifluorobutanamido)methyl)imidazo[1,2-b]pyridazin-2-yl)(4,4-difluorocyclohexyl)methyl)-4-methylisoxazole-3-carboxamide], the IC50 was determined as 48 nM in assay [1] and 210 nM in assay [2].

As for `Cc1oncc1C(=O)N[C@H](c1cn2ncc([C@H](NC(=O)CCC(F)(F)F)C3CC3)cc2n1)C1CCC(F)(F)CC1` [Example 159, N—((S)-(7-((R)-Cyclopropyl(4,4,4-trifluorobutanamido)methyl)imidazo[1,2-b]pyridazin-2-yl)(4,4-difluorocyclohexyl)methyl)-5-methylisoxazole-4-carboxamide], the values for the IC50 in assay [1] and in assay [2] were 100 nM and 260 nM, respectively.

Regarding `Cc1cnoc1C(=O)N[C@H](c1cn2ncc([C@H](NC(=O)CCC(F)(F)F)C3CC3)cc2n1)C1CCC(F)(F)CC1` [Example 160, N—((S)-(7-((R)-Cyclopropyl(4,4,4-trifluorobutanamido)methyl)imidazo[1,2-b]pyridazin-2-yl)(4,4-difluorocyclohexyl)methyl)-4-methylisoxazole-5-carboxamide], the IC50 in assay [1] is 73 nM; in assay [2], 270 nM.

`Cc1nscc1C(=O)N[C@H](c1cn2ncc([C@H](NC(=O)CCC(F)(F)F)C3CC3)cc2n1)C1CCC(F)(F)CC1` [Example 161, N—((S)-(7-((R)-Cyclopropyl(4,4,4-trifluorobutanamido)methyl)imidazo[1,2-b]pyridazin-2-yl)(4,4-difluorocyclohexyl)methyl)-3-methylisothiazole-4-carboxamide]: the IC50 in assay [1] was 61 nM; in assay [2] it was 310 nM.

For the compound `CC(C)c1cc(C(=O)N[C@H](c2cn3ncc([C@H](NC(=O)CCC(F)(F)F)C4CC4)cc3n2)C2CCC(F)(F)CC2)ncn1` [Example 162, N—((S)-(7-((R)-Cyclopropyl(4,4,4-trifluorobutanamido)methyl)imidazo[1,2-b]pyridazin-2-yl)(4,4-difluorocyclohexyl)methyl)-6-isopropylpyrimidine-4-carboxamide], the IC50 in assay [1] worked out at 150 nM; in assay [2] it was 940 nM.

For `O=C(CCC(F)(F)F)N[C@@H](c1cnn2cc([C@@H](NC(=O)c3cccc(N4CCCC4=O)c3)C3CCC(F)(F)CC3)nc2c1)C1CC1` [Example 163, N—((S)-(7-((R)-Cyclopropyl(4,4,4-trifluorobutanamido)methyl)imidazo[1,2-b]pyridazin-2-yl)(4,4-difluorocyclohexyl)methyl)-3-(2-oxopyrrolidin-1-yl)benzamide], the figures for the IC50 in assay [1] and in assay [2] were 120 nM and 100 nM, respectively.

`O=C(CCC(F)(F)F)N[C@@H](c1cnn2cc([C@@H](NC(=O)c3cccc(C4CC4(F)F)c3)C3CCC(F)(F)CC3)nc2c1)C1CC1` (stereo partly drawn) [Example 164, N—((S)-(7-((R)-Cyclopropyl(4,4,4-trifluorobutanamido)methyl)imidazo[1,2-b]pyridazin-2-yl)(4,4-difluorocyclohexyl)methyl)-3-(2,2-difluorocyclopropyl)benzamide]: the values for the IC50 in assay [1] and in assay [2] were 55 nM and 130 nM, respectively.

With `O=C(CCC(F)(F)F)N[C@@H](c1cnn2cc([C@@H](NC(=O)c3cc(F)cc(OC(F)F)c3)C3CCC(F)(F)CC3)nc2c1)C1CC1` [Example 165, N—((S)-(7-((R)-Cyclopropyl(4,4,4-trifluorobutanamido)methyl)imidazo[1,2-b]pyridazin-2-yl)(4,4-difluorocyclohexyl)methyl)-3-(difluoromethoxy)-5-fluorobenzamide], the figures for the IC50 in assay [1] and in assay [2] were 52 nM and 130 nM, respectively.
